Data reported in PubChem BioAssay AID248 (DTP/NCI, 2004).
Toxic doses and inconclusive results are not listed. Rule as the data show it: active = T/C of 150% or more; inactive = T/C below 125%.

System: L1210 leukemia ip in BDF1 mice, survival T/C
Assay: NCI In Vivo Anticancer Drug Screen. Data for tumor model L1210 Leukemia (intraperitoneal) in B6D2F1 (BDF1) mice
Conditions: endpoint: mean survival time, higher = longer survival
Summary of the method: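 Value reflects the ratio of survival in compound-treated mice to survival in vehicle-treated controls, with both groups carrying the same transplanted tumor.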

[1] = dose: 100.0 mg/kg/injection, schedule: Q04DX003 (ip), vehicle: saline with Tween-80
[2] = dose: 100.0 mg/kg/injection, schedule: Q04DX003 (ip), vehicle: Klucel (hydroxypropylcellulose) (HPC)
[3] = dose: 200.0 mg/kg/injection, schedule: Q04DX003 (ip), vehicle: Klucel (hydroxypropylcellulose) (HPC)
[4] = dose: 400.0 mg/kg/injection, schedule: Q04DX003 (ip), vehicle: Klucel (hydroxypropylcellulose) (HPC)
[5] = dose: 100.0 mg/kg/injection, schedule: Q01DX001 (ip), vehicle: saline
[6] = dose: 200.0 mg/kg/injection, schedule: Q01DX001 (ip), vehicle: saline
[7] = dose: 400.0 mg/kg/injection, schedule: Q01DX001 (ip), vehicle: saline
[8] = dose: 100.0 mg/kg/injection, schedule: Q04DX003 (ip), vehicle: other
[9] = dose: 200.0 mg/kg/injection, schedule: Q04DX003 (ip), vehicle: other
[10] = dose: 100.0 mg/kg/injection, schedule: Q04DX003 (ip), vehicle: saline
[11] = dose: 200.0 mg/kg/injection, schedule: Q04DX003 (ip), vehicle: saline
[12] = dose: 400.0 mg/kg/injection, schedule: Q04DX003 (ip), vehicle: saline
[13] = dose: 100.0 mg/kg/injection, schedule: Q01DX001 (ip), vehicle: carboxymethylcellulose (CMC)
[14] = dose: 50.0 mg/kg/injection, schedule: Q01DX009 (ip), vehicle: Klucel (hydroxypropylcellulose) (HPC)
[15] = dose: 200.0 mg/kg/injection, schedule: Q01DX001 (ip), vehicle: carboxymethylcellulose (CMC)
[16] = dose: 400.0 mg/kg/injection, schedule: Q01DX001 (ip), vehicle: carboxymethylcellulose (CMC)
[17] = dose: 50.0 mg/kg/injection, schedule: Q01DX001 (ip), vehicle: saline
[18] = dose: 100.0 mg/kg/injection, schedule: Q01DX009 (ip), vehicle: Klucel (hydroxypropylcellulose) (HPC)
[19] = dose: 200.0 mg/kg/injection, schedule: Q01DX009 (ip), vehicle: Klucel (hydroxypropylcellulose) (HPC)

Measured: T/C

CC1CCC(N=S=O)CC1 (stereo not drawn) (tested in a mixture with another compound)
inactive: dose: 18.75 mg/kg/injection, schedule: Q01DX009 (ip), vehicle: saline with Tween-80 102 % of control | dose: 25.6 mg/kg/injection, schedule: Q04DX002 (ip), vehicle: saline with Tween-80 102 % of control | dose: 37.5 mg/kg/injection, schedule: Q01DX009 (ip), vehicle: saline with Tween-80 102 % of control | dose: 64.0 mg/kg/injection, schedule: Q04DX002 (ip), vehicle: saline with Tween-80 109 % of control | dose: 75.0 mg/kg/injection, schedule: Q01DX009 (ip), vehicle: saline with Tween-80 111 % of control | [1] 101 % of control | dose: 160.0 mg/kg/injection, schedule: Q04DX002 (ip), vehicle: saline with Tween-80 95 % of control

CCC(C)c1c(N)nc(N)[nH]c1=O (stereo not drawn)
inactive: [2] 94 % of control | [3] 106 % of control | [4] 110 % of control

O=C(O)c1csnn1
inactive: [5] 102 % of control | [6] 97 % of control | [7] 103 % of control

O=[N+]([O-])c1cc2c(cc1/C=N/N=C1c3ccccc3-c3ccccc31)OCO2
inactive: dose: 75.0 mg/kg/injection, schedule: Q01DX001 (ip), vehicle: other 94 % of control | dose: 150.0 mg/kg/injection, schedule: Q01DX001 (ip), vehicle: other 92 % of control

Cc1c[nH]c2nccnc12
inactive: dose: 100.0 mg/kg/injection, schedule: Q01DX009 (ip), vehicle: water 102 % of control | dose: 100.0 mg/kg/injection, schedule: Q04DX003 (ip), vehicle: water 108 % of control | dose: 200.0 mg/kg/injection, schedule: Q01DX009 (ip), vehicle: water 96 % of control | dose: 200.0 mg/kg/injection, schedule: Q04DX003 (ip), vehicle: water 98 % of control | dose: 400.0 mg/kg/injection, schedule: Q01DX009 (ip), vehicle: water 105 % of control | dose: 400.0 mg/kg/injection, schedule: Q04DX003 (ip), vehicle: water 101 % of control

Cc1ccc(/C=N/N)s1
inactive: [8] 92 % of control | [9] 99 % of control

CCN(CC)C(=O)/C=C/C(=O)N(CC)CC
inactive: [10] 103 % of control | [11] 100 % of control | [12] 100 % of control

CCCCCCCCCCCCCCOc1ccc(C(=O)CC(=O)OC)cc1
inactive: [2] 90 % of control | [3] 98 % of control | [4] 90 % of control

O=c1[nH][nH]c(=O)c2cc3ccccc3cc12
inactive: dose: 62.5 mg/kg/injection, schedule: Q01DX009 (ip), vehicle: Klucel (hydroxypropylcellulose) (HPC) 98 % of control | dose: 125.0 mg/kg/injection, schedule: Q01DX009 (ip), vehicle: Klucel (hydroxypropylcellulose) (HPC) 105 % of control

COC1OC2COC(c3ccccc3)OC2C(NC(C)=O)C1OC(C)=O (stereo not drawn)
inactive: [10] 98 % of control | [11] 97 % of control | [12] 101 % of control

CN(CN(C)NC(=O)c1ccccc1)NC(=O)c1ccccc1
inactive: [13] 98 % of control

CCCCCCCCCC(C)CCCCCCC (stereo not drawn)
inactive: dose: 100.0 mg/kg/injection, schedule: Q01DX001 (ip), vehicle: saline with Tween-80 103 % of control | dose: 200.0 mg/kg/injection, schedule: Q01DX001 (ip), vehicle: saline with Tween-80 97 % of control | dose: 400.0 mg/kg/injection, schedule: Q01DX001 (ip), vehicle: saline with Tween-80 100 % of control

O=C1CCCN1
inactive: [10] 92 % of control | [11] 97 % of control | [12] 92 % of control

OC(c1ccccc1)C1C(c2ccccc2)N1C1CCCCC1 (stereo not drawn)
inactive: dose: 25.0 mg/kg/injection, schedule: Q01DX009 (ip), vehicle: Klucel (hydroxypropylcellulose) (HPC) 97 % of control | [14] 96 % of control | [2] 101 % of control | [3] 98 % of control

O=c1[nH]c2cc([N+](=O)[O-])ccc2c2ccc(Cl)cc12
inactive: [13] 102 % of control | [15] 91 % of control | [16] 95 % of control

COc1ccc(OC)c(C2C(C#N)C(C=O)NC(C=O)C2C#N)c1 (stereo not drawn)
inactive: [8] 107 % of control | [9] 109 % of control | dose: 400.0 mg/kg/injection, schedule: Q04DX003 (ip), vehicle: other 107 % of control

CN=C(NC)c1ccc(NC(=O)Nc2ccc(C)c(NC(=O)Nc3ccc(C(=NC)NC)cc3)c2)cc1
inactive: dose: 4.5 mg/kg/injection, schedule: Q01DX Z (ip), vehicle: water 98 % of control | dose: 9.0 mg/kg/injection, schedule: Q01DX Z (ip), vehicle: water 98 % of control | dose: 18.0 mg/kg/injection, schedule: Q01DX Z (ip), vehicle: water 98 % of control

CCC/C=N/Nc1ccnc(SCc2ccccc2)n1
inactive: dose: 75.0 mg/kg/injection, schedule: Q01DX009 (ip), vehicle: DMSO 88 % of control

ClCCOCCOc1ccccc1
inactive: [1] 96 % of control | dose: 200.0 mg/kg/injection, schedule: Q04DX003 (ip), vehicle: saline with Tween-80 100 % of control | dose: 400.0 mg/kg/injection, schedule: Q04DX003 (ip), vehicle: saline with Tween-80 101 % of control

CCCC1C2C(=O)N(c3ccccc3)C(=O)C2ON1c1ccccc1 (stereo not drawn)
inactive: [17] 104 % of control | [5] 98 % of control | [6] 101 % of control | [7] 106 % of control

CCC1CCCCN1C (stereo not drawn)
inactive: dose: 25.0 mg/kg/injection, schedule: Q01DX009 (ip), vehicle: acetone 96 % of control | dose: 50.0 mg/kg/injection, schedule: Q01DX009 (ip), vehicle: acetone 94 % of control | dose: 100.0 mg/kg/injection, schedule: Q01DX009 (ip), vehicle: acetone 100 % of control

O=C(NNc1ccccc1)c1ccccc1
inactive: [14] 101 % of control | [18] 101 % of control | [2] 94 % of control | [10] 100 % of control | [19] 110 % of control | [3] 107 % of control | [11] 103 % of control | [4] 100 % of control | [12] 93 % of control

Cn1c(=O)c2ccc[n+]([O-])c2n(C)c1=O
inactive: [18] 101 % of control | [2] 103 % of control | [19] 108 % of control | [3] 96 % of control | dose: 400.0 mg/kg/injection, schedule: Q01DX009 (ip), vehicle: Klucel (hydroxypropylcellulose) (HPC) 105 % of control | [4] 107 % of control

CCCCCCCCCCCCCCC[As](=O)(O)CCCCCCCCCCCCCCC
inactive: [17] 97 % of control | [5] 95 % of control | [6] 95 % of control | [7] 95 % of control

Nc1cc(Cl)ccc1O
inactive: [5] 98 % of control | [6] 91 % of control

C[C@@H]1CC2=CC(=O)C=C[C@]2(C)[C@H]2CC[C@@]3(C)[C@@H](CC[C@]3(C)O)[C@H]12
inactive: dose: 100.0 mg/kg/injection, schedule: Q01DX001 (sc), vehicle: steriod suspending solution 104 % of control | dose: 200.0 mg/kg/injection, schedule: Q01DX001 (sc), vehicle: steriod suspending solution 106 % of control | dose: 400.0 mg/kg/injection, schedule: Q01DX001 (sc), vehicle: steriod suspending solution 97 % of control

CCOC(=O)N1C2C(c3ccccc3)=NC(C)(C)N2C(c2ccc([N+](=O)[O-])cc2)N1C(=O)OCC (stereo not drawn)
inactive: dose: 100.0 mg/kg/injection, schedule: Q01DX001 (ip), vehicle: other 93 % of control | dose: 200.0 mg/kg/injection, schedule: Q01DX001 (ip), vehicle: other 102 % of control | dose: 400.0 mg/kg/injection, schedule: Q01DX001 (ip), vehicle: other 91 % of control

N#CCCNC=O
inactive: dose: 100.0 mg/kg/injection, schedule: Q04DX002 (ip), vehicle: saline 109 % of control | dose: 200.0 mg/kg/injection, schedule: Q04DX002 (ip), vehicle: saline 98 % of control | dose: 400.0 mg/kg/injection, schedule: Q04DX002 (ip), vehicle: saline 109 % of control

Cc1nc(N)nc(N)c1-c1ccccc1
inactive: [13] 100 % of control | [15] 94 % of control | [16] 92 % of control
